From publication PMC11217349, “Development of Nurr1 agonists from amodiaquine by scaffold hopping and fragment growing” (Communications Chemistry, 2024) come the findings set out here.

“And” between values parts separate entries of the source, which are not always exact repeats. Equal entries are not always repeated. “Also recorded” adds a separate entry of the source.

In data set [1] the target is T1, VDR (Homo sapiens, UniProt P11473).
T1 construct: chimeric receptors composed of the Gal4-DBD and the hinge region and LBD; expressed in transfected cells; host or cells: HEK293T
T1 sequence (P11473 127-423 limits assumed): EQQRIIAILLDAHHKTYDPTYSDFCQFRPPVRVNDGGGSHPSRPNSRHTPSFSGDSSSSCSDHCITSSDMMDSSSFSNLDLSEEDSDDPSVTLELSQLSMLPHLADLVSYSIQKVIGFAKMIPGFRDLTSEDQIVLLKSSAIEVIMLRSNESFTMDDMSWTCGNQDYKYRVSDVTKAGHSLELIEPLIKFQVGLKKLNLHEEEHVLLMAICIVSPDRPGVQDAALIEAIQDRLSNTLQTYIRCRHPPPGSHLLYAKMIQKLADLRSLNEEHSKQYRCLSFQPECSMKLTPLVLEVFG
The data set is described as follows: Gal4-hybrid selectivity assay VDR. Format: cell-based. To be noted: 3 µM; reference agonist = 100%.

The target in data set [2] is T2, PPARγ (Homo sapiens, UniProt P37231).
T2 construct: chimeric receptors composed of the Gal4-DBD and the hinge region and LBD; expressed in transfected cells; host or cells: HEK293T
T2 sequence (P37231 238-503 limits assumed): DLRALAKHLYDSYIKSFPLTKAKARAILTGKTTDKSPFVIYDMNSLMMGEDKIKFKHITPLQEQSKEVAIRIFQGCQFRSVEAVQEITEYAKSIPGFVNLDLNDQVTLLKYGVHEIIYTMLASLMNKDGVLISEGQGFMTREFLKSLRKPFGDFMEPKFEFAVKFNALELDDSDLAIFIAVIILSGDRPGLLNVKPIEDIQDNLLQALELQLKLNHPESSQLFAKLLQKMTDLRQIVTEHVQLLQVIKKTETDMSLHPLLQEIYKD
The experiment in a line: Gal4-hybrid selectivity assay PPARγ. Format: cell-based. To be noted: 3 µM; reference agonist = 100%. As to the method: (§1) Nurr1 modulation was determined in a Gal4 hybrid reporter gene assay in HEK293T cells (German Collection of Microorganisms and Cell Culture GmbH, DSMZ) using pFR-Luc (Stratagene, La Jolla, CA, USA; reporter), pRL-SV40 (Promega, Madison, WI, USA; internal control) and pFA-CMV-hNurr1-LBD[14], coding for the hinge region and ligand binding domain of the canonical isoform of human Nurr1. […] After 24 h, the medium was changed to Opti-MEM without supplements, and cells were transiently transfected using Lipofectamine LTX reagent (Invitrogen, Carlsbad, CA, USA) according to the manufacturer’s protocol. Five hours after transfection, cells were incubated with the test compounds in Opti-MEM supplemented with penicillin (100 U/mL), streptomycin (100 μg/mL), and 0.1% DMSO for 16 h before luciferase activity was measured using the Dual-Glo Luciferase Assay System (Promega) according to the manufacturer’s protocol on a Tecan Spark luminometer (Tecan Deutschland GmbH, Crailsheim, Germany). Firefly luminescence was divided by Renilla luminescence and multiplied by 1000 resulting in relative light units (RLU) to normalize for transfection efficiency and cell growth. Fold activation was obtained by dividing the mean RLU of the test compound by the mean RLU of the untreated control. All samples were tested in at least three biologically independent experiments in duplicates. […]

For data set [3], the system named is HBEC-5i human brain endothelial cells. The experiment in a line: In vitro blood-brain-barrier model. Type of data set: in vitro ADME. To be noted: HBEC-5i trans-well, 10 µM, 60 min. The procedure:
Permeation of test compounds through a human brain endothelial cell barrier was evaluated using the Corning Costar 3470 Transwell Plate system (0.4 μm pore diameter with 6.5 mm inserts) and HBEC-5i cells (ATCC, CRL-3245). Filter inserts were coated one day before seeding with 50 μL 0.01% rat-tail collagen type I ([…], Sigma-Aldrich) in PBS. 60,000 HBEC-5i cells in 100 μL HBEC-5i-Medium (DMEM/F12 with 10% FCS and 40 μg/mL ECGS) were seeded after aspiration of the coating-supernatant in each insert with 600 μL HBEC-5i-Medium in each receiver well. After 24 h incubation at 37 °C with 5% CO2, the medium was exchanged to 600 μL T98G cell supernatant in receiver wells and 100 μL fresh HBEC-5i-Medium in inserts. The medium exchange was repeated every second day. On day 7 after seeding, the medium in the receiver wells was replaced by 600 μL Hank's balanced salt solution (HBSS) containing 10 mM HEPES and 0.1% DMSO and 100 μL test compound mixtures (antipyrine and test compound; each at 10 μM) in HBSS containing 10 mM HEPES and 0.1% DMSO were added to inserts. After 60 min incubation, 100 μL samples were taken from the receiver wells and diluted in 400 μL (75%/25% A/B; A=Formic acid 0.1% in water; B = Acetonitrile). Test compound concentrations in the samples were determined by LC-MS/MS on an API-3200-QTrap (Sciex) equipped with an Agilent Technologies 1100 series setup including a binary pump […]), and a Shimadzu […] autosampler under the control of Analyst 1.6 (Sciex). […] B) for 6 min going to (50%:50%) after 8 min. 5 μL of aspirated supernatant diluted in mobile phase starting conditions was loaded onto the column, separated at a flow rate of 400 μL/min, and quantified per Area of MRM (multiple reaction monitoring).

In data set [4] the test system is N27 rat neurons. The data set is described as follows: WST-8 cytotoxicity assay, N27. Format: cell-based. The procedure:
Each sample was prepared in four biologically independent repeats. After incubation for 24 h, the medium was refreshed and 10% water-soluble tetrazolinum salt (Cell Counting Kit-8, MedChemExpress) was added to assess metabolic activity. After 4 h, absorbance was measured at 450 nm using a Tecan Spark Cyto instrument (Tecan).

The target in data set [5] is T3, FXR (Homo sapiens, UniProt Q96RI1).
T3 construct: chimeric receptors composed of the Gal4-DBD and the hinge region and LBD; expressed in transfected cells; host or cells: HEK293T
T3 sequence (Q96RI1 262-486 limits assumed): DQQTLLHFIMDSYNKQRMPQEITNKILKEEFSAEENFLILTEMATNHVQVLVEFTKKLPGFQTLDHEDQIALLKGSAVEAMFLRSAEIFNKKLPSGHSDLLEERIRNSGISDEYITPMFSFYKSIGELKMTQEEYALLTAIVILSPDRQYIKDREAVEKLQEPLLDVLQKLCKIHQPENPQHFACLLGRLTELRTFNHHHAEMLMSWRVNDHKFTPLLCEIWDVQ
The experiment in a line: Gal4-hybrid selectivity assay FXR. Format: cell-based. The note with it: 3 µM; reference agonist = 100%. As to the method: as §1

The target in data set [6] is T4, RARα (Homo sapiens, UniProt P10276).
T4 construct: chimeric receptors composed of the Gal4-DBD and the hinge region and LBD; expressed in transfected cells; host or cells: HEK293T
T4 sequence (P10276 183-417 limits assumed): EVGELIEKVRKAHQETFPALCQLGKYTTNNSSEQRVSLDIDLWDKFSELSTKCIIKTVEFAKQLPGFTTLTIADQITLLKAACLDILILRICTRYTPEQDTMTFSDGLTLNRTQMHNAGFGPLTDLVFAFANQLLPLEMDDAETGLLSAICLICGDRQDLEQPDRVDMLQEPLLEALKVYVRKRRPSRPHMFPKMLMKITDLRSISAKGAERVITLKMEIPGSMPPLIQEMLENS
The data set is described as follows: Gal4-hybrid selectivity assay RARα. Format: cell-based. The note with it: 3 µM; reference agonist = 100%. As to the method:
as §1

For data set [7], the target named is T5, PPARα (Homo sapiens, UniProt Q07869).
T5 construct: chimeric receptors composed of the Gal4-DBD and the hinge region and LBD; expressed in transfected cells; host or cells: HEK293T
T5 sequence (Q07869 239-466 limits assumed): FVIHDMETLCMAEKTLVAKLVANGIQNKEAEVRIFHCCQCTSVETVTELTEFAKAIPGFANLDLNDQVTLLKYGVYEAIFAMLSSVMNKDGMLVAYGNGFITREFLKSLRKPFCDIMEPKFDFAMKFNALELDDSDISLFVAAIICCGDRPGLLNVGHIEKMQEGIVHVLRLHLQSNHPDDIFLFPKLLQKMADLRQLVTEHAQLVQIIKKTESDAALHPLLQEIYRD
The data set is described as follows: Gal4-hybrid selectivity assay PPARα. Type of data set: cell-based. To be noted: 3 µM; reference agonist = 100%. As to the method: as §1

Data set [8] has as its target T6, RXRα (Homo sapiens, UniProt P19793).
T6 construct: chimeric receptors composed of the Gal4-DBD and the hinge region and LBD; expressed in transfected cells; host or cells: HEK293T
The experiment in a line: Gal4-hybrid selectivity assay RXRα. Format: cell-based. The note with it: 3 µM; reference agonist = 100%. The procedure:
as §1

Data set [9] is described as follows: Parallel artificial membrane permeability assay (PAMPA). Type of data set: in vitro ADME. To be noted: 500 µM donor, pH 7.4, 18 h. The procedure:
Passive lipid membrane diffusion of test compounds was determined using Merck Millipore MultiScreen Filter Plates (0.45 μm pore diameter, hydrophobic PVDF). The filter inserts were coated with 1% L-α-phosphatidylcholine (Fluka Analytical) in n-dodecan. The test compounds were then added to the donor compartment at a final concentration of 500 µM in a phosphate buffer pH 7.4 containing 5% DMSO with a total volume of 150 µL. The acceptor compartment was filled with 300 µL PBS containing 5% DMSO. Additionally, three equilibrium samples were prepared by directly adding the donor solution to the acceptor compartment for the calculation of log Pe values. The filter plates were incubated for 18 h before the test compound concentrations in the acceptor compartments and in the equilibrium, samples were determined by UV absorbance at 320 nm (34), 360 nm (36), 310 nm (41), or 315 nm (42) with external calibration in a 96 well quartz plate on a SpectraMax M2e microplate reader (Molecular Devices). logPe values were calculated according to the formula published by Sugano and colleagues.

T6 sequence (P19793 227-458 limits assumed): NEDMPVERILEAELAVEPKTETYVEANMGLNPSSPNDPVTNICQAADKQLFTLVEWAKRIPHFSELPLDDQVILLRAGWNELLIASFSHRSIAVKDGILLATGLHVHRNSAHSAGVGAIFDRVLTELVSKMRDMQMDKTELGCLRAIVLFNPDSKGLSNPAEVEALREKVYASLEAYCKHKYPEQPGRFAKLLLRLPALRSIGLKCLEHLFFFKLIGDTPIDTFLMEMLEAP

As to `Cc1nc2c(Cl)cccn2c1NC(=O)c1ccc(-c2ccc(N(C)C)cc2)o1` [Compound 36, N-(8-Chloro-2-methylimidazo[1,2-a]pyridin-3-yl)-5-(4-(dimethylamino)phenyl)furan-2-carboxamide], the “% rel. act. VDR” value in data set [1] was 4.840% and 6.730% and 2.930%. The “% rel. act. PPARγ” value in [2] was 10.373% and 9.960% and 8.281%. Further, the “logPe (BBB)” value in [3] was -4.64 and -4.729 and -4.725 and -4.687 and -4.681 and -4.749. Also, in data set [4] (N27, 10 µM, WST-8, vs DMSO ctrl), the “rel. absorbance (450 nm)” value is 94% and 99% and 90% and 91%. For the same molecule, the “toxicity (WST-8)” value in data set [4] (N27 rat neurons, 24 h) was “no toxic effect; also recorded: non-toxic; also recorded: inactive (10 µM)”. The “% rel. act. FXR” value in data set [5] was 0.311% and 0.333% and 0.363%. Further, the “% rel. act. RARα” value in [6] is 0.175% and 0.388% and 0.324%. Also, the “% rel. act. PPARα” value in data set [7] is 1.669% and 2.630% and 1.870%. Further, the “% rel. act. RXRα” value in data set [8] is 0.348% and 0.360% and 0.470%. The “logPe (PAMPA)” value in [9] was -5.647 and -5.642 and -5.6601 and -5.6738.
